# Assay results from US11786555B2, “RAR selective agonists in combination with immune modulators for cancer immunotherapy” (IO THERAPEUTICS, INC., priority 2017, dated 2023).
# Legend:
# [1] = test system: Kasumi-1 cells; assay: CFU experiments, off and on stroma; format: cell-based; conditions: 10^−6 M ATRA, IRX5183, or 10^−7 M AM80
# Source text: (§1) Data across three independent experiments.
# [2] = test system: NB4 cells; assay: CFU experiments, off and on stroma; format: cell-based; conditions: 10^−7 M ATRA, IRX5183, or 10^−8 M AM80
# Source text: as §1
# [3] = test system: OCI-AML3 cells; assay: CFU experiments, off and on stroma; format: cell-based; conditions: 10^−6 M ATRA, IRX5183, or 10^−7 M AM80
# Source text: as §1
# [4] = test system: H929 cells; assay: mobilization experiment, BTZ after separation from BM stroma; format: cell-based, human
# Protocol: FIG. 5 depicts clonogenic recovery of H929 cells treated with BTZ (2.5 nM). MM cells were incubated for 5 days in the absence (Liquid) or presence of BM mesenchymal cells (Stroma), with or without R115 (1 μM). Following this preincubation, H929 cells were separated from BM stroma, cultured in fresh media for 0 to 48 hours, and then treated with BTZ (2.5 nM) for 48 hours. Clonogenic recovery was normalized to each condition in the absence of BTZ.
# Mobilization experiments. MM cells were separated from BM stromal cells by gently pipetting several times around the well. Detached cells were centrifuged, resuspended in fresh media, and incubated in a 24-well plate for 1 hr at 37° C. During this short incubation period, contaminating stromal cells attached to the well, while MM cells remained in suspension. MM cells were then recovered by gently pipetting. This protocol was used for qRT-PCR and CFU coculture experiments. […]
# Clonogenic assays. […] Cells were plated in triplicate in 35-mm culture dishes, incubated at 37° C., and scored for the presence of colonies 14 days later.
# Strategies to overcome microenvironment-dependent chemoprotection have focused on mobilization of cancer cells from the BM niche into the peripheral circulation. It was analyzed whether the change in phenotype and subsequent BTZ resistance of MM cells were lost upon separation from the BM stroma, a process that mimics mobilization. […]
# [5] = test system: H929 cells and primary CD138+ MM cells; assay: clonogenic or cellular recovery of MM cells after BTZ treatment; format: cell-based, human; conditions: for sensitivity of MM cells to BTZ: BTZ 2.5 nM for 48 hours
# Protocol: FIG. 4A-B depicts the clonogenic recovery (CFU) of H929 cells (FIG. 4A) or cellular recovery of primary CD138+ MM cells from 3 different patient samples (FIG. 4B). MM cells were treated with bortezomib (BTZ; 2.5 nM) for 48 hours after being incubated for 5 days either in the absence of stroma (Liquid), with or without the pan-RAR inhibitor AGN (1 μM), or in the presence of BM mesenchymal cells (Stroma), with or without the CYP26 inhibitor R115 (1 μM) or the CYP26-resistant retinoid IRX (1 μM). Clonogenic or cellular recovery was normalized to each condition in the absence of BTZ.
# (§2) Coculture experiments. 24-well plates were coated with 0.1% gelatin in PBS for 30 min at 37° C. The gelatin solution was removed, and the stromal cells were cultured overnight at a density of 5×10^4 cells/well to obtain a confluent monolayer. At that time, MM cell lines or primary MM cells (1×10^5 in 2 ml) were added to the stroma cultures. The stroma cocultures were incubated at 37° C. in RPMI containing 10% FCS, L-glutamine, and P/S, with or without AGN194310 (1 μM for 5 days), R115866 (1 μM for 5 days), IRX5183 (1 μM for 5 days), or BTZ (2.5 nM for 48 hr).
# Clonogenic assays. After treatment, MM cells were collected, washed with PBS, and plated at a density of 5,000 cells/ml in 1 ml of 1.32% methylcellulose supplemented with 30% FBS, 10% BSA, L-glutamine, P/S, and 0.1 mM β-ME. Cells were plated in triplicate in 35-mm culture dishes, incubated at 37° C., and scored for the presence of colonies 14 days later.
# A RA-low microenvironment induces BTZ resistance. To determine whether decreased retinoid signaling contributes to BTZ resistance within the BM niche, MM cell lines and MM CD138+ primary cells were incubated with BM stroma for 5 days, followed by BTZ treatment.
# [6] = test system: H929 Luc+ cells with WT or Smo-KO stroma; assay: subcutaneous xenograft model of MM-niche interactions, bioluminescence; format: in vivo, mouse; conditions: BTZ 0.5 mg/kg i.p. twice weekly
# Protocol: FIG. 9 depicts bioluminescent images of mice showing tumor burden during 4 weeks of treatment with IRX (10 mg/kg), BTZ (0.5 mg/kg), or the combination. Anterior tumors consisted of a combination of MM.1S luciferase^+ cells and Smo^FI/FI BM stroma cells transduced with a control vector (WT BM stroma). Posterior tumors consisted of a combination of MM.1S luciferase^+ cells and Smo^FI/FI BM stroma cells transduced with Cre-recombinase (Smo KO BM stroma).
# FIG. 10 depicts the fold change in bioluminescence (photons/second) of tumors during 4 weeks of treatment. The change in bioluminescence for each tumor […].
# Mouse xenografts. 1×10^6 H929 Luc+ cells and 1×10^6 mouse BM stromal cells were resuspended in 100 μl […]®, diluted with RPMI (1:1), and injected subcutaneously into 16-week-old male NSG mice. After 4 days, treatment with BTZ (0.5 mg/kg i.p. twice weekly) and IRX (10 mg/kg i.p. daily) was initiated. Tumor burden was assessed by bioluminescence using the In Vivo Imaging System (PerkinElmer). For imaging, mice were exposed to 120 mg/kg D-luciferin via intraperitoneal injection […] before imaging and were anesthetized using isoflurane. Images were analyzed with Living Image Software, version 2.5 (PerkinElmer), and data were quantified as photons/second.
# To study to what extent an RA-low environment created by the BM stroma and enhanced by MM cells via paracrine Hedgehog signaling contributes to BTZ resistance, a xenograft model of MM-niche interactions was developed. Each mouse carried 2 subcutaneous tumors consisting of H929 Luc+ cells and either WT (anterior tumors) or Smo-KO stroma (posterior tumors). Mice were treated with IRX (10 mg/kg i.p. daily), BTZ (0.5 mg/kg i.p. twice weekly), or a combination of both. The growth of tumors bearing WT or Smo-KO stroma was not different in untreated or IRX-treated groups (FIGS. 9 and 10). […] While some tumors in the treatment group receiving combined IRX and BTZ appeared to have regressed completely, even after anatomical study, this was not the case for all the mice in this group.
# [7] = test system: H929 Luc+ cells; assay: systemic MM xenograft, bioluminescence; format: in vivo, mouse; conditions: monotherapy, 4 weeks; BTZ 0.5 mg/kg i.p. twice weekly, IRX 10 mg/kg once daily
# Protocol: FIG. 6 depicts bioluminescent images of systemic MM xenografts. Following engraftment of H929 Luc+ cells, mice were treated with IRX (n=4), BTZ (n=5), or a combination of both (n=5) for 4 weeks. Data represent the mean±SEM of the fold change in bioluminescence (photons/second) from day 0.
# For the systemic MM model, 2×10^6 Luc+/GFP+ H929 cells were injected via the tail vein into 16-week-old male NSG mice. After engraftment, as determined by an exponential increase in bioluminescence, mice were treated with BTZ (0.5 mg/kg i.p.) twice weekly and with IRX (10 mg/kg) once daily. Tumor burden was assessed by bioluminescence, as above.
# To test whether retinoids can enhance BTZ activity in MM, a systemic MM xenograft was developed by injecting 2×10^6 H929 luciferase+ (Luc+) cells via the tail vein of non-obese, diabetic, severe combined immunodeficiency IL-2 receptor y-KO (NSG) mice. The animals were randomized to receive IRX, BTZ, or a combination of both, and disease burden was followed weekly by bioluminescence imaging (FIG. 6).
# [8] = test system: H929 cells and CD138+ primary MM cells; assay: qRT-PCR of B cell and PC markers in MM cells, liquid or BM stroma co-culture; format: cell-based, human
# Protocol: FIG. 3A-H depicts the relative concentration of plasma markers BCL6 (FIG. 3A and E), BLIMP-1 (FIG. 3B and F), XBPS-1 (FIG. 3C and G), and CHOP (FIG. 3D and H) in multiple myeloma (MM) cell lines H929 (FIG. 3A-D) or CD138+ MM cells from three different patient samples (FIG. 3E-H) incubated for 5 days either in the absence of stroma (Liquid), with or without AGN (RA receptor antagonist AGN194310, 1 μM), or co-cultured with BM mesenchymal cells (Stroma), with or without R115 (CYP26 inhibitor R115866, 1 μM) or IRX (CYP26-resistant retinoid IRX5183, 1 μM). Expression in untreated liquid conditions was set at 1. Data are representative of 3 independent experiments with similar results and represent the mean ±SEM. *P≤0.05 and **P≤0.01, by repeated-measures 1-way ANOVA for determination of statistical significance between groups; P values were corrected for multiple comparisons using Dunnett's test. Ctrl, control; max, maximum.
# as §2
# (§3) qRT-PCR. Total RNA was extracted using the RNeasy Mini Kit (QIAGEN) according to the manufacturer's instructions. cDNA was synthesized by reverse transcription using the iScript cDNA Synthesis Kit (Bio-Rad). qRT-PCR was performed with iTaq SYBR Green Supermix (Bio-Rad) using sequence specific primers. Gene expression was normalized to GAPDH, and relative quantification was calculated using ΔΔCt. All experiments were performed in duplicate and run on the Bio-Rad CFX96 machine.
# The BM microenvironment (also called “niche”) limits PC differentiation by modulating retinoid signaling. A population of MM progenitors, phenotypically similar to B cells, is intrinsically resistant to BTZ and contributes to MRD and relapse. To investigate whether the BM niche plays a role in determining the phenotype of MM cells, the mRNA expression of B cell and PC markers in MM H929 cell lines (FIG. 3A-D) and MM CD138+ primary cells (FIG. 3E-H) was analyzed following co-culture with mouse BM stroma using human-specific primers. […] In contrast, co-culture of MM cells with BM stroma decreased the mRNA expression of B lymphocyte-induced maturation protein 1 (BLIMP1) and spliced X box-binding protein 1 (XBP1s) (FIG. 3B, C, F, G), which are critical mediators of PC differentiation.
# The BM niche regulates hematopoietic stem cell (HSC) differentiation by expressing the retinoid-inactivating enzyme CYP26. CYP26 enzymes were highly expressed in BM mesenchymal cells, while their expression was barely detectable in MM cells. Since retinoid signaling promotes PC differentiation and potentiates Ig secretion, it was determined whether stromal CYP26 is responsible for inducing a B cell phenotype in MM cells. To this end, co-culture conditions were treated with the CYP26 inhibitor R115866 (R115) or the CYP26-resistant RA receptor α-selective (RARα-selective) retinoid IRX5183 (IRX).
# [9] = test system: BM stromal cells; assay: CYP26A1 expression in BM stromal cells exposed to soluble factors; format: cell-based; conditions: soluble factors tested
# Protocol: as §3
compound,measurement,setting,value
"CC1=C(/C=C/C(C)=C/C=C/C(C)=C/C(=O)O)C(C)(C)CCC1 [ATRA, all-trans retinoic acid]","clonogenic growth (CFU), differentiation and elimination of AML",[1],stroma blockage
same,"clonogenic growth (CFU), differentiation and elimination of AML",[2],stroma blockage
same,"clonogenic growth (CFU), differentiation and elimination of AML",[3],stroma blockage
"CC(C)C[C@H](NC(=O)[C@H](Cc1ccccc1)NC(=O)c1cnccn1)B(O)O [BTZ, bortezomib]",BTZ resistance after separation from BM stroma,"[4]; 5-day stroma co-culture, fresh media 0 to 48 hr, then BTZ 2.5 nM",remained partially resistant to BTZ for up to 48 hr following detachment from stroma
same,sensitivity of MM cells to BTZ,[5]; absence of BM stroma (liquid),highly sensitive to BTZ
same,sensitivity of MM cells to BTZ,[5]; after 5 days incubation with BM stroma,induced BTZ resistance
same,tumor response (bioluminescence),[6]; tumors carrying Smo-KO stroma,significant response
same,tumor response (bioluminescence),[6]; tumors with WT stroma,refractory to BTZ treatment
same,tumor burden (bioluminescence),[7],decreased tumor growth compared with untreated controls
CCC(CC)C(c1ccc(Nc2nc3ccccc3s2)cc1)n1cncn1 (stereo not drawn) [Compound R115866],expression of differentiation markers by qRT-PCR or flow cytometry,[8]; liquid conditions compared with BM stroma,did not significantly affect the expression of differentiation markers
same,"mRNA expression of B cell and PC markers (BCL6, BLIMP1, XBP1s, CHOP)","[8]; stroma co-cultures, 1 μM for 5 days",restored all markers to levels comparable to those of liquid control conditions
same,development of BTZ-resistant phenotype,"[4]; co-culture treated with 1 μM, then separation and BTZ",prevented the development of a BTZ-resistant phenotype
same,effect on stroma-induced BTZ resistance,"[5]; stroma co-culture, 1 μM for 5 days, then BTZ 2.5 nM",overcome
"IL-6: cytokine, soluble factor produced by MM cells",expression of CYP26A1 on BM stromal cells,[9],no significant effects
TNF-α,expression of CYP26A1 on BM stromal cells,[9],no significant effects
